Experiments:
[1] = Hydrolysis resistance (variation in acid value in alkaline aqueous solution, pH 13); type: physicochemical; settings: 10 g sample + 20 g NaOH aqueous solution pH 13, 40±1° C.
Method: 10 g of the carboxylate compound of formula (I-1) prepared in Synthesis Example 1 was mixed with 20 g of an alkaline aqueous solution with a pH value of 13 (which contained sodium hydroxide and water), and then subjected to a reaction at 40±1° C. for 4 hours. Next, the variation in acid value (mg KOH/g) was measured at the 0.75th, 2nd, 3rd, and 4th hours after starting the reaction.
The carboxylate compound of formula (I-2) prepared in Synthesis Example 2, the carboxylate compound of formula (I-3) prepared in Synthesis Example 3, and the test samples of Comparative Examples 1 to 2 were subjected to the same reaction and measurement as described above.
The smaller the variation in acid value, the better the hydrolysis resistance to strong bases is.

skin of a test subject = test: Moisture retention (skin moisture content after application); type: in vivo; settings: 20° C.±3° C., relative humidity 30%±5%
Method: 0.1 g of the scalp protection composition of Example 1 was applied to the skin of a test subject. At the 1st, 2nd, and 3rd hours after start of application of the scalp protection composition of Example 1, the skin moisture content (%) of the test subject was measured by using a skin moisture tester (Manufacturer: Cortex Technology; Model no.: DermaLab® Combo) under a temperature of 20° C.±3° C. and a relative humidity of 30%±5%.
The test samples of Comparative Examples 1 and 3 were subjected to the same measurement as described above.
The higher the skin moisture content, the better the moisture retention is.

[2] = Spreadability (spreading rate on quantitative filter paper); type: physicochemical; settings: 50 μL on quantitative filter paper NO. 5C, spreading area after 5 minutes divided by time
Method: 50 μL of the carboxylate compound of formula (I-1) prepared in Synthesis Example 1 was dropped on the center of a quantitative filter paper (NO. 5C), and after 5 minutes, the spreading area of the carboxylate compound of formula (I-1) on the quantitative filter paper was measured. The spreading rate (mm^2/min) was calculated by dividing the spreading area by the spreading time (i.e., 5 minutes).
The carboxylate compound of formula (I-2) prepared in Synthesis Example 2, the carboxylate compound of formula (I-3) prepared in Synthesis Example 3, and the test samples of Comparative Examples 1 to 3 were subjected to the same measurement as described above.
The higher the spreading rate, the better the spreadability is.

Row | Variation in acid value ([1]; 0.75th hour) | Variation in acid value ([1]; 2nd hour) | Variation in acid value ([1]; 3rd hour) | Variation in acid value ([1]; 4th hour) | Spreading rate [2] | SMILES | Skin moisture content (skin of a test subject; 1st hour after application of 0.1 g to skin) | Skin moisture content (skin of a test subject; 2nd hour after application of 0.1 g to skin) | Skin moisture content (skin of a test subject; 3rd hour after application of 0.1 g to skin)
1 | 0.21 mg KOH/g | 0.26 mg KOH/g | 0.28 mg KOH/g | 0.32 mg KOH/g | 150 mm^2/min | CCCCCCCCCCC(CCCCCCCC)COC(=O)CCCCCCCCCCCCCCC(C)C (stereo not shown) [Comparative Example 1, 2-octyldodecyl isostearate] | 28.0% | 22.7% | 19.3%
2 | <0.1 mg KOH/g | <0.1 mg KOH/g | 0.12 mg KOH/g | 0.16 mg KOH/g | 202 mm^2/min | CCCCCCCCCCC(CCCCCCCC)COC(=O)C(CC)CCCC (stereo not shown) [Synthesis Example 1, 2-octyldodecyl 2-ethylhexanoate] | – | – | –
